Data taken from the supplement of paper PMC12463676, “Small-molecule dissolution of stress granules by redox modulation benefits ALS models” (Nature Chemical Biology, 2025).

Key:
lipoamide = compound: NC(=O)CCCCC1CCSS1 [lipoamide]; test: thermal stability z-score vs DMSO; higher = more thermally stabilized by treatment; details: HeLa, lipoamide concentration 100 µM
Method: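 Cellular thermal proteome profiling in HeLa cells. Cells were treated with 100 µM lipoamide for 1 h, with or without 1 mM arsenate for a further 1 h, then heated to ten temperatures (37-66.3 °C), and soluble protein was quantified by TMT mass spectrometry relative to 0.1% DMSO controls. The thermal stability score (sum of log2 fold changes minus the abundance score) was transformed to a z-score; mean of n = 3 experiments.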

potassium arsenate = compound: O=[As]([O-])(O)O.[K+] [potassium arsenate]; test: as above; details: HeLa; arsenate concentration 1 mM
Method: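 Cellular thermal proteome profiling in HeLa cells treated with 1 mM arsenate for 1 h (DMSO pretreatment), heated to ten temperatures (37-66.3 °C). Soluble protein was quantified by TMT mass spectrometry relative to DMSO controls; the thermal stability score was transformed to a z-score; mean of n = 3 experiments.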

[1] = arsenate co-treatment: 1 mM arsenate 1 h
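Further: each temperature applied for 3 min, abundance score taken as mean log2 fold change at the two lowest temperatures, z-score obtained by mean subtraction and division by SD.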

UniProt Q15477, sequence (Q15477 whole entry): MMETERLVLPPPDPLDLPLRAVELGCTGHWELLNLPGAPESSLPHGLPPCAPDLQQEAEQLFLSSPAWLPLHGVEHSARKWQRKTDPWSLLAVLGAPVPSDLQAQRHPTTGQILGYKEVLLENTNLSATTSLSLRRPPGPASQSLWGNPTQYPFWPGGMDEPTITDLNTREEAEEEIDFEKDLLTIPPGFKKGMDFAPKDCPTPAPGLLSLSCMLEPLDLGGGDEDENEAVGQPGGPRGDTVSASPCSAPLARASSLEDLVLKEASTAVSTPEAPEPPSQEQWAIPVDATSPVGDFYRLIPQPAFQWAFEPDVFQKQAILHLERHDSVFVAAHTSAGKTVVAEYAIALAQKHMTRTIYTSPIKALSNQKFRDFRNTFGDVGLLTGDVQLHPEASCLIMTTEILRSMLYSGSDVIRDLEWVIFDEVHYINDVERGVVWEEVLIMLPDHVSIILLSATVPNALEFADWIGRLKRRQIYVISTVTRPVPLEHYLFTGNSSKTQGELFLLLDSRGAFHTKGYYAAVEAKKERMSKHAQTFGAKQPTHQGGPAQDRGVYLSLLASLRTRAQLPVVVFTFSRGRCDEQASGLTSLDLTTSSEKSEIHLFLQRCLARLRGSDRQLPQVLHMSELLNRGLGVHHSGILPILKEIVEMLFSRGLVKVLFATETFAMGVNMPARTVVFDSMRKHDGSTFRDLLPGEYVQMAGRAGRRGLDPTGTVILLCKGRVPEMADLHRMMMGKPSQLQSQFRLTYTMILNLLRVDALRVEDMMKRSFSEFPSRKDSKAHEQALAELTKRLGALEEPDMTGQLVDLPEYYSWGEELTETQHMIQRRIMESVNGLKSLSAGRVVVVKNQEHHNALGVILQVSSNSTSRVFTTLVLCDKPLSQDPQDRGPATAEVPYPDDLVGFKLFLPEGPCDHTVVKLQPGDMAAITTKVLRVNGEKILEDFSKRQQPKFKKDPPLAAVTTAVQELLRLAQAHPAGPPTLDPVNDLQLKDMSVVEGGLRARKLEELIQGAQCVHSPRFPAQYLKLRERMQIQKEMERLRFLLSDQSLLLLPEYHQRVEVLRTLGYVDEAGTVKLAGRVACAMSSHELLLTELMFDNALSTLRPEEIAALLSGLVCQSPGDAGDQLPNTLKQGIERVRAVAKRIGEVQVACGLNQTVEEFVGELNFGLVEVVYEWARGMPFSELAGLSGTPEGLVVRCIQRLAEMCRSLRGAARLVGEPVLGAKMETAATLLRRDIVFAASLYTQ
UniProt Q9NRY5, sequence (Q9NRY5 whole entry): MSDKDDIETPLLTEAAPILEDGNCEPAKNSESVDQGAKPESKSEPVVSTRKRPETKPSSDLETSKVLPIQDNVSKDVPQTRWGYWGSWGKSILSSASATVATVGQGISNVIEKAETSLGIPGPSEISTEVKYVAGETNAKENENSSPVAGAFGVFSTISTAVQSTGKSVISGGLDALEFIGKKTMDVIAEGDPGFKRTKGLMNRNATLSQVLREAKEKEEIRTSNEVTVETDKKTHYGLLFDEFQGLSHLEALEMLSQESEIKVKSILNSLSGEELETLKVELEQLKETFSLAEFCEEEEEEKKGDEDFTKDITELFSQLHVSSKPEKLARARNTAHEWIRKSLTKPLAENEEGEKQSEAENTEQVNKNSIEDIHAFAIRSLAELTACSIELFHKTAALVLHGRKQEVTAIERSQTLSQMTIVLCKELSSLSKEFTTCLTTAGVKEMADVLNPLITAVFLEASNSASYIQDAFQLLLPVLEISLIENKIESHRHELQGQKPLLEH
UniProt O43379, sequence (O43379 whole entry): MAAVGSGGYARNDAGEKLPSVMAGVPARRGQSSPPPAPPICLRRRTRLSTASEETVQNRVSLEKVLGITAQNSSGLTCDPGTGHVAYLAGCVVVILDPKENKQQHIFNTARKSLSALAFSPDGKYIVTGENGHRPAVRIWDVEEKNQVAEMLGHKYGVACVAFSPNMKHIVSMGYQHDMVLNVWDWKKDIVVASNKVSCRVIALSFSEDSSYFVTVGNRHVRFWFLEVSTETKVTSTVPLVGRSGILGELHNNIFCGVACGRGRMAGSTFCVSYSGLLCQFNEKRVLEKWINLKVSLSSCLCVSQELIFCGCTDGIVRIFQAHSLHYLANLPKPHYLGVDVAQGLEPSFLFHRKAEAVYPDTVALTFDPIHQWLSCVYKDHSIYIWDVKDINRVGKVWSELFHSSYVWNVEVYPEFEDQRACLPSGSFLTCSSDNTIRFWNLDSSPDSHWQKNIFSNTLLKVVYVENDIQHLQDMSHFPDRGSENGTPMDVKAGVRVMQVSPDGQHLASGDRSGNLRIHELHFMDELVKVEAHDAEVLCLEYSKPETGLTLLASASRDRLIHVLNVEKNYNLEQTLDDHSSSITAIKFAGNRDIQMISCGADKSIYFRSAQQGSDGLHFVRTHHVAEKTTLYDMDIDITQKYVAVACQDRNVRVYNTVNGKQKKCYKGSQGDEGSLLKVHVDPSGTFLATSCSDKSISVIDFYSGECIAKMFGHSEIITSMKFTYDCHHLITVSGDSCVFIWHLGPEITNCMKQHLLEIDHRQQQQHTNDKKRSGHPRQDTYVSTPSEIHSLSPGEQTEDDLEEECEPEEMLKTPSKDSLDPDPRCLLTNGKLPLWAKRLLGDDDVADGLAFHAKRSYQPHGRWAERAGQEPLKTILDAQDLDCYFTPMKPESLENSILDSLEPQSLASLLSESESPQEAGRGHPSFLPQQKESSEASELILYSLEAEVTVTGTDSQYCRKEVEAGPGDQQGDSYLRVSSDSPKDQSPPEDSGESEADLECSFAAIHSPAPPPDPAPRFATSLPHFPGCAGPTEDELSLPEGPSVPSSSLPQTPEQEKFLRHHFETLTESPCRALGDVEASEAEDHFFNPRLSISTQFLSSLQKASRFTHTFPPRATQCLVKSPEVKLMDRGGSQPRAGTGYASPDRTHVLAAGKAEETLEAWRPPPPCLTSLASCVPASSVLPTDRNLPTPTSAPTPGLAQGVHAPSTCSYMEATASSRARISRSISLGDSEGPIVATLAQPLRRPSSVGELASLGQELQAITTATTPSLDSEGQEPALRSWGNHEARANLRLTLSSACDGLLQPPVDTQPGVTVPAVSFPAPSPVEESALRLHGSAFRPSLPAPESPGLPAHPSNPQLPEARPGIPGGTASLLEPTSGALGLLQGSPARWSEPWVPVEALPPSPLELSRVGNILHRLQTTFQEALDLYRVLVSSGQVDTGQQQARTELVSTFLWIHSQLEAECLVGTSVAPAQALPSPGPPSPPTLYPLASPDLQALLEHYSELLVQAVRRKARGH
UniProt Q9NWS0, sequence (Q9NWS0 whole entry): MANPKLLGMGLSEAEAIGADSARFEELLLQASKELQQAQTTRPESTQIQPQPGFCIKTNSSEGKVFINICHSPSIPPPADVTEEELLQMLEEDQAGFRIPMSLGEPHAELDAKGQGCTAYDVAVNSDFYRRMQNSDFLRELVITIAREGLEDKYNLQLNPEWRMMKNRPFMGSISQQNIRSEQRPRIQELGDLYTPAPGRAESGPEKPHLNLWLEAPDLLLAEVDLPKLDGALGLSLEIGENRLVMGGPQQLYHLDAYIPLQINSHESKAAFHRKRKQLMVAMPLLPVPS
UniProt Q9BW60, sequence (Q9BW60 whole entry): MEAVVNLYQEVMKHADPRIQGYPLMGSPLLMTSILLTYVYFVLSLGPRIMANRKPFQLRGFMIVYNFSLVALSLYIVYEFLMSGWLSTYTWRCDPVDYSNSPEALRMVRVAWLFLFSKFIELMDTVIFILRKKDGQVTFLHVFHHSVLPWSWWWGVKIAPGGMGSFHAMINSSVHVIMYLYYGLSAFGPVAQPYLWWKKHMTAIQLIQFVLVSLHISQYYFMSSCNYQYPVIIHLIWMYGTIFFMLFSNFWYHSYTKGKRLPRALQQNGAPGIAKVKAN
UniProt P50402, sequence (P50402 whole entry): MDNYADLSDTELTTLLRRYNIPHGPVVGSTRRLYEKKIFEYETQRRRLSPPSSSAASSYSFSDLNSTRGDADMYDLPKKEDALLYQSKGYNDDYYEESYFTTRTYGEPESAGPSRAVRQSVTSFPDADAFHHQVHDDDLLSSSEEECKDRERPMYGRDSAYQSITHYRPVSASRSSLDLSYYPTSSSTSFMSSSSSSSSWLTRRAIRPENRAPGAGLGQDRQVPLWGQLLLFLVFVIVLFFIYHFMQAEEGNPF
UniProt P21283, sequence (P21283 whole entry): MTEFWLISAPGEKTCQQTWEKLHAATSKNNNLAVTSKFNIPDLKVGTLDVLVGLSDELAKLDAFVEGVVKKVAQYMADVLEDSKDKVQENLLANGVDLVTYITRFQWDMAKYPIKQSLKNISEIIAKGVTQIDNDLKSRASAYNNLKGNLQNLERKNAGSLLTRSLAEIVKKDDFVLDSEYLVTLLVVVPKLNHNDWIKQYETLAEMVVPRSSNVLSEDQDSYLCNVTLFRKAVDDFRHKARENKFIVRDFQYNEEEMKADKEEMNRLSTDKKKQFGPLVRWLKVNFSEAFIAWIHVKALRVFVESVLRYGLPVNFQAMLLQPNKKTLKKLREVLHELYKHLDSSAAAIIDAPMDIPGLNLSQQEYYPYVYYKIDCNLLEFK
UniProt P61201, sequence (P61201 whole entry): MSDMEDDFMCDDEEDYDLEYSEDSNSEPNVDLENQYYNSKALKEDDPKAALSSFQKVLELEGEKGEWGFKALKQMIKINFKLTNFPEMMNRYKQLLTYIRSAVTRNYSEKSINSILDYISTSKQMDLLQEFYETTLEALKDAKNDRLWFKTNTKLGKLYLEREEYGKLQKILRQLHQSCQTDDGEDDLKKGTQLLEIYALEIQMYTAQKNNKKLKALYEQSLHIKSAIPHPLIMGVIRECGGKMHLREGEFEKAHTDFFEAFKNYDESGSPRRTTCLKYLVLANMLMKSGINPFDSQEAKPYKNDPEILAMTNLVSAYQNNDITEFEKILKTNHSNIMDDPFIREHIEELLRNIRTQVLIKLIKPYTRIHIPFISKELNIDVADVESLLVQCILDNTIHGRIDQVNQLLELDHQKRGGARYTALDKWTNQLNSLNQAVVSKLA
UniProt Q9NQG1, sequence (Q9NQG1 whole entry): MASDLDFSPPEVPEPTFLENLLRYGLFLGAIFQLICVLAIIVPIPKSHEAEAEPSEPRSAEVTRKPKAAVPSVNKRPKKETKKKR

Target	thermal stability z-score (lipoamide; [1])	thermal stability z-score (lipoamide; arsenate co-treatment: none)	thermal stability z-score (potassium arsenate)
PIH1D1 (UniProt Q9NWS0)	1.07	0.114	0.538
PSPH (UniProt P78330)	0.359	0.393	0.056
ATP6V1C1 (UniProt P21283)	-0.136	0.0202	0.132
NCAPD2 (UniProt Q15021)	-0.565	-0.251	0.369
TUBG1 (UniProt P23258)	0.135	-0.106	0.415
SULT1A4|SULT1A3	-0.787	0.186	1.16
POLR2D (UniProt O15514)	1.21	0.628	-0.735
DDT (UniProt P30046)	-0.198	0.134	0.0872
USP10 (UniProt Q14694)	0.103	0.045	-0.241
NCDN (UniProt Q9UBB6)	0.164	-0.266	0.288
WRNIP1 (UniProt Q96S55)	-0.272	-0.113	0.0587
RMND5A (UniProt Q9H871)	0.216	0.0656	0.156
RAD23B (UniProt P54727)	1.08	1.05	0.357
TTC9C (UniProt Q8N5M4)	-0.988	-0.401	-0.649
SESN2 (UniProt P58004)	-0.134	0.162	-0.132
SF3B6 (UniProt Q9Y3B4)	-0.787	-0.165	-0.667
RPL14 (UniProt P50914)	0.565	0.492	-1.08
PSMA6 (UniProt P60900)	0.746	0.795	0.345
PLAA (UniProt Q9Y263)	0.0745	-0.41	-0.0864
EMD (UniProt P50402)	-0.75	-0.633	-0.405
SIPA1 (UniProt Q96FS4)	-0.295	0.0519	0.319
RAB11B (UniProt Q15907)	-0.384	-1.01	-0.384
COPS2 (UniProt P61201)	0.538	-0.0451	0.0289
ELOVL1 (UniProt Q9BW60)	-0.883	-0.778	0.652
MRPL35 (UniProt Q9NZE8)	-0.257	-0.048	0.129
CTH (UniProt P32929)	0.473	0.559	0.596
MRPS30 (UniProt Q9NP92)	-0.185	-0.539	-0.147
STAMBPL1 (UniProt Q96FJ0)	0.417	0.511	1.05

Target	thermal stability z-score (lipoamide; [1])	thermal stability z-score (lipoamide; arsenate co-treatment: none)	thermal stability z-score (potassium arsenate)
ZC3H11A (UniProt O75152)	0.0837	-0.0442	-0.845
CSNK2A1 (UniProt P68400)	0.541	0.00111	0.489
SDHB (UniProt P21912)	-0.24	-0.16	-0.681
VPRBP (UniProt Q9Y4B6)	-0.368	-0.578	0.0129
TFRC (UniProt P02786)	0.193	0.202	0.144
IQGAP2 (UniProt Q13576)	-0.121	-0.159	-0.209
EXOSC1 (UniProt Q9Y3B2)	0.0998	-1.26	-0.615
GSR (UniProt P00390)	0.558	0.347	-0.106
MTM1 (UniProt Q13496)	0.198	0.0354	-0.804
RUVBL1 (UniProt Q9Y265)	-0.0828	0.115	-0.662
FAM50A (UniProt Q14320)	-0.0555	0.352	0.455
SENP6 (UniProt Q9GZR1)	-0.0511	-0.0676	-0.18
C11ORF68 (UniProt Q9H3H3)	-0.438	-0.551	0.538
SKIV2L (UniProt Q15477)	-0.147	-0.384	0.2
SRPRA (UniProt P08240)	-0.176	-0.208	0.545
UBAC1 (UniProt Q9BSL1)	0.447	-0.0576	0.576
MRPL16 (UniProt Q9NX20)	-0.269	-0.373	-0.974
FAM114A2 (UniProt Q9NRY5)	-0.354	-0.328	0.222
MYCBP2 (UniProt O75592)	-0.0354	0.179	-0.207
METTL3 (UniProt Q86U44)	-0.16	0.0119	0.165
WDR62 (UniProt O43379)	-0.259	-0.153	-0.0901
FAM117B (UniProt Q6P1L5)	-1.14	0.461	0.314
LTA4H (UniProt P09960)	0.357	0.32	-0.164
ZBED1 (UniProt O96006)	-0.243	-0.292	0.00958
TIMM44 (UniProt O43615)	0.147	0.291	-0.65
MANBAL (UniProt Q9NQG1)	1.06	1.59	0.0493
DIEXF (UniProt Q68CQ4)	0.1	0.0895	0.134
